We go through ten compounds from patent publication US7482488B2, “Aryl and heteroaryl propene amides, derivatives thereof and therapeutic uses thereof” (Temple University - Of The Commonwealth System of Higher …, priority 2002, dated 2009).

Type in all cases: cell-based, human
Test [1] has as its system BT20 (breast cancer). Nature of the test: Effect on tumor cell lines: viable cell count by trypan blue exclusion, BT20. As to conditions: BT20 breast cancer cells; 100 nM to 10 μM; viable cells counted 96 hours after treatment. The procedure: (§1) The effect of the aromatic acrylamides on normal fibroblasts and on tumor cells was determined by the assay described by Latham et al.,Oncogene 12:827-837 (1996). Normal diploid lung human fibroblasts (HFL-1) or tumor cells (BT20(breast cancer), DLD1 (colorectal cancer), DU145 (prostate cancer and K562 (chronic myelogenous leukemia )) were plated in 6-well dishes at a cell density of 1.0 ×10^5cells per 35-mm^2 well. The plated cells were treated 24 hours later with a compound of the invention, dissolved in DMSO at multiple concentrations ranging from 100 nM to 10 μM. The total number of viable cells was determined 96 hours later by trypsinizing the wells and counting the number of viable cells, as determined by trypan blue exclusion, using a hemacytometer. Normal HFL cells were treated with the same compounds under the same conditions of concentration and time.
(§2) Representative examples of activities of compounds of the invention in cell lines: BT20(breast cancer), DLD1 (colorectal cancer), DU145 (prostate cancer and K562 (chronic myelogenous leukemia ) are listed in Table 5.

For test [2], the system named is DLD1 (colorectal cancer). The experiment in a line: Effect on tumor cell lines: viable cell count by trypan blue exclusion, DLD1. As to conditions: DLD1 colorectal cancer cells; 100 nM to 10 μM; viable cells counted 96 hours after treatment. As for the experimental part:
as §1, §2

Test [3] concerns K562 (chronic myelogenous leukemia). Nature of the test: Effect on tumor cell lines: viable cell count by trypan blue exclusion, K562. As to conditions: K562 chronic myelogenous leukemia cells; 100 nM to 10 μM; viable cells counted 96 hours after treatment. The procedure: as §1, §2
Test [4] concerns DU145 (prostate cancer). The experiment in a line: Effect on tumor cell lines: viable cell count by trypan blue exclusion, DU145. As to conditions: DU145 prostate cancer cells; 100 nM to 10 μM; viable cells counted 96 hours after treatment. As for the experimental part:
as §1, §2

Take `COc1ccc(NC(=O)/C=C/c2c(OC)cc(OC)cc2OC)cc1` [Example 1, (E)-N-(4-Methoxyphenyl)-3-(2,4,6-trimethoxyphenyl)-2-propen-amide]: the BT20 activity entry in test [1] was “+++ (+++ denotes activity at 100 nM)”. Moreover, in test [2], the DLD1 activity entry is on record as “+++ (+++ denotes activity at 100 nM)”. In addition, the K562 activity result in test [3] is “+++ (+++ denotes activity at 100 nM)”. For the same compound, in test [4], the DU145 activity entry is “+++ (+++ denotes activity at 100 nM)”.
On to `COc1ccc(NC(=O)/C=C/c2c(OC)cccc2OC)cc1` [Example 2, (E)-N-(4-Methophenyl)-3-(2,6-dimethoxypheyl)-2-propenamide], for which the BT20 activity result in test [1] is recorded as “+ (+ denotes activity at >10 μM)”. For the same compound, the DLD1 activity result in test [2] is reported as “+ (+ denotes activity at >10 μM)”. In addition, in test [3], the K562 activity result is “+ (+ denotes activity at >10 μM)”. Further, the DU145 activity entry in test [4] is listed as “+ (+ denotes activity at >10 μM)”.
On to `COc1ccc(NC(=O)/C=C/c2cc(OC)c(OC)c(OC)c2)cc1N` [Example 4, (E)-N-(4-Methoxy-3-aminophenyl)-3-(3,4,5-trimethoxyphenyl)-2-propenamide], for which the BT20 activity result in test [1] is listed as “+ (+ denotes activity at >10 μM)”. In addition, in test [2], the DLD1 activity entry is given as “+ (+ denotes activity at >10 μM)”. Also, the K562 activity entry in test [3] is recorded as “+ (+ denotes activity at >10 μM)”. For the same compound, in test [4], the DU145 activity result was “+ (+ denotes activity at >10 μM)”.
As to `COc1cc(OC)c(/C=C/C(=O)Nc2ccc(OC)c(N)c2)c(OC)c1` [Example 6, (E)-N-(4-methoxy-3-aminophenyl)-3-(2,4,6-trimethoxyphenyl)-2-propenamide], the BT20 activity entry in test [1] is “+++ (+++ denotes activity at 100 nM)”. For the same compound, the DLD1 activity entry in test [2] is “+++ (+++ denotes activity at 100 nM)”. In addition, the K562 activity entry in test [3] is reported as “+++ (+++ denotes activity at 100 nM)”. In addition, in test [4], the DU145 activity result is “+++ (+++ denotes activity at 100 nM)”.
For the compound `COc1ccc(NC(=O)/C=C/c2c(F)c(F)c(F)c(F)c2F)cc1[N+](=O)[O-]` [Example 7, (E)-N-(4-Methoxy-3-nitrophenyl)-3-(2,3,4,5,6-pentafluorophenyl)-2-propenamide], the BT20 activity result in test [1] was “++ (++ denotes activity at 10 μM)”. In addition, the DLD1 activity entry in test [2] is given as “++ (++ denotes activity at 10 μM)”. For the same compound, the K562 activity entry in test [3] was “++ (++ denotes activity at 10 μM)”. The DU145 activity entry in test [4] is reported as “++ (++ denotes activity at 10 μM)”.
Regarding `COc1ccc(NC(=O)/C=C/c2ccc(N)c(F)c2)cc1N` [Example 9, (E)-N-(4-Methoxy-3-aminophenyl)-3-(3-fluoro-4-aminophenyl)-2-propenamide], in test [1], the BT20 activity result is given as “++ (++ denotes activity at 10 μM)”. For the same compound, in test [2], the DLD1 activity entry is “++ (++ denotes activity at 10 μM)”. The K562 activity entry in test [3] is “++ (++ denotes activity at 10 μM)”. In test [4], the DU145 activity entry is “++ (++ denotes activity at 10 μM)”.
For `COc1cc(OC)c(/C=C/C(=O)Nc2ccc(OC)c(NC(=O)C(F)(F)F)c2)c(OC)c1` [Example 10, (E)-N-(4-Methoxy-3-trifluoroacetamidophenyl)-3-(2,4,6-trimethoxyphenyl)-2-propenamide], the BT20 activity result in test [1] is on record as “+++ (+++ denotes activity at 100 nM)”. Besides, the DLD1 activity entry in test [2] is “+++ (+++ denotes activity at 100 nM)”. Moreover, the K562 activity entry in test [3] is “+++ (+++ denotes activity at 100 nM)”. Also, in test [4], the DU145 activity result was “+++ (+++ denotes activity at 100 nM)”.
Turning to `COc1cc(OC)c(/C=C/C(=O)Nc2ccc(OC)c(O)c2)c(OC)c1` [Example 11, (E)-N-(3-Hydoxy-4-methoxyphenyl)-3-(2,4,6-trimethoxyphenyl)-2-propenamide], the BT20 activity result in test [1] is “++++ (++++ denotes activity at <100 nm)”. In addition, the DLD1 activity entry in test [2] is “++++ (++++ denotes activity at <100 nm)”. Also, the K562 activity result in test [3] is “++++ (++++ denotes activity at <100 nm)”. Besides, the DU145 activity entry in test [4] is given as “++++ (++++ denotes activity at <100 nm)”.
As to `COc1cc(/C=C/C(=O)Nc2ccc(Br)cc2)ccc1F` [Example 12, (E)-N-(4-Bromophenyl)-3-(3-methoxy-4fluorophenyl)-2-propenamide], the BT20 activity result in test [1] is listed as “++ (++ denotes activity at 10 μM)”. Further, the DLD1 activity entry in test [2] is given as “++ (++ denotes activity at 10 μM)”. In addition, the K562 activity entry in test [3] is given as “++ (++ denotes activity at 10 μM)”. The DU145 activity result in test [4] was “++ (++ denotes activity at 10 μM)”.
For the compound `N#Cc1cc(/C=C/C(=O)Nc2ccc(Br)cc2)ccc1F` [Example 13, (E)-N-(4-Bromophenyl)-3-(3-cyano-4-fluorophenyl)-2-propenamide], the BT20 activity result in test [1] was “++ (++ denotes activity at 10 μM)”. Moreover, the DLD1 activity entry in test [2] was “++ (++ denotes activity at 10 μM)”. In addition, the K562 activity entry in test [3] was “++ (++ denotes activity at 10 μM)”. The DU145 activity result in test [4] was “++ (++ denotes activity at 10 μM)”.
